Reference: patent US20250170107A1, “IMIDAZOPYRIDINE INHIBITORS OF TYROSINE KINASE” (BridGene Biosciences. Inc., priority 2022, published 2025)

Tests used:
FLT3 = molecular target: T1, FLT3 (Homo sapiens, UniProt P36888); assay: Caliper mobility shift kinase inhibition assay, recombinant FLT3; type: biochemical; details: recombinant FLT-3 0.1 nM, ATP 95 μM, incubation 3 hr, room temperature
T1 construct: purchased ThermoFisher PV3182
T1 sequence (P36888 27-993): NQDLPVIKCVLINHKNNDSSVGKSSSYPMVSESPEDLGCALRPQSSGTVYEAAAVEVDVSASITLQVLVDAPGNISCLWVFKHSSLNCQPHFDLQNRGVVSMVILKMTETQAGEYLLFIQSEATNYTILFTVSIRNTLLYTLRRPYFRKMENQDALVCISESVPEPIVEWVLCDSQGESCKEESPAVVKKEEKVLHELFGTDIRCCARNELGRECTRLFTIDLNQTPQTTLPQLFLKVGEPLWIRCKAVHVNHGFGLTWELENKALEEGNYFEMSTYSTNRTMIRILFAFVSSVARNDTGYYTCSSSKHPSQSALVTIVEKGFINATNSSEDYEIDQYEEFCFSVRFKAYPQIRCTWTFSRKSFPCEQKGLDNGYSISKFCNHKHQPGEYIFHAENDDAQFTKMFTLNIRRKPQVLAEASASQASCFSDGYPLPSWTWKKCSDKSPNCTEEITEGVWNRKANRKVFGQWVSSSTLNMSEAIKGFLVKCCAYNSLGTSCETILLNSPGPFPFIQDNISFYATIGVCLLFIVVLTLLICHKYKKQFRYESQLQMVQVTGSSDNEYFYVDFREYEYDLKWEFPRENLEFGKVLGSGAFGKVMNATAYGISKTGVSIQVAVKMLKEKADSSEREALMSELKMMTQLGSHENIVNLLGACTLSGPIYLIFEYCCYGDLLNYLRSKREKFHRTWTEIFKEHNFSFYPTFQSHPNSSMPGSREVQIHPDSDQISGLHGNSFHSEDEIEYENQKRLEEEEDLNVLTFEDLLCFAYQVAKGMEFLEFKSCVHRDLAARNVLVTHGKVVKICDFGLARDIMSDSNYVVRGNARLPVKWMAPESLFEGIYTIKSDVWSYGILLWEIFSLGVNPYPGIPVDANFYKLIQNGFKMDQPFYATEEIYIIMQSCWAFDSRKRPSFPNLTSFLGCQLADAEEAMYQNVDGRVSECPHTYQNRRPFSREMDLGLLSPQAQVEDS
Method: Compounds' inhibition of recombinant kinases (FLT3, KIT) was measured using Caliper mobility shift assay, which is based on the difference in capillary electrophoresis mobility of a fluorescent-tagged peptide as a result of a phosphorylation by the kinase under study. Reactions were started by the addition of various concentrations of a compound (originally in DMSO solution) to a kinase solution in assay buffer followed by addition of a mixture of ATP and a fluorescent-tagged peptide substrate in assay buffer. Concentrations of the enzyme, ATP and thepeptide were pre-optimized so that 15% substrate conversion to ensure initial velocity measurements. After incubation for 3 hours at room temperature, the kinase reaction was quenched by the addition of a concentrated EDTA solution before analysis on a LabChip EZ Reader II to yield percentage inhibition by comparing to the DMSO control. Table 2 below summarizes the assay conditions for the characterization of the kinase inhibition properties of the disclosed compounds.

KIT = molecular target: T2, KIT (Homo sapiens, UniProt P10721); assay: Caliper mobility shift kinase inhibition assay, recombinant KIT; type: biochemical; details: recombinant KIT 0.9 nM, ATP 400 μM, incubation 17 hr (Table 2)
T2 construct: purchased BPS 40250

MV4-11 = assay: Cell viability assay (CellTiter-Glo), FLT3 cell-based assay; details: MV4-11 cells, 72 hr at 37° C., 0.1% DMSO
Method: Cell viability assay was performed based on the following brief procedures. Cells were plated at the density of 5K/well with volume of 180 μL in 96-well white plate and clear bottom plates. 20 μL of veh. or compound was added at proper concentration to the well. The final volume is 200 μL, with final conc. of DMSO=0.1%, 11 points, triplicates. The cells were then treated at 37° C. in the TC incubator for 72 hr. Equal volume (200 μL) of CellTiter-Glo reagent (Promega) was added to the well and protect from light at room temperature for 15 min. The chemiluminescence was measured with EnSight (Perkin Elmer). GraphPad Prism non-linear regression, Log[inhibitor] response with four parameters were used to calculate GI50.

T2 sequence (P10721 26-976): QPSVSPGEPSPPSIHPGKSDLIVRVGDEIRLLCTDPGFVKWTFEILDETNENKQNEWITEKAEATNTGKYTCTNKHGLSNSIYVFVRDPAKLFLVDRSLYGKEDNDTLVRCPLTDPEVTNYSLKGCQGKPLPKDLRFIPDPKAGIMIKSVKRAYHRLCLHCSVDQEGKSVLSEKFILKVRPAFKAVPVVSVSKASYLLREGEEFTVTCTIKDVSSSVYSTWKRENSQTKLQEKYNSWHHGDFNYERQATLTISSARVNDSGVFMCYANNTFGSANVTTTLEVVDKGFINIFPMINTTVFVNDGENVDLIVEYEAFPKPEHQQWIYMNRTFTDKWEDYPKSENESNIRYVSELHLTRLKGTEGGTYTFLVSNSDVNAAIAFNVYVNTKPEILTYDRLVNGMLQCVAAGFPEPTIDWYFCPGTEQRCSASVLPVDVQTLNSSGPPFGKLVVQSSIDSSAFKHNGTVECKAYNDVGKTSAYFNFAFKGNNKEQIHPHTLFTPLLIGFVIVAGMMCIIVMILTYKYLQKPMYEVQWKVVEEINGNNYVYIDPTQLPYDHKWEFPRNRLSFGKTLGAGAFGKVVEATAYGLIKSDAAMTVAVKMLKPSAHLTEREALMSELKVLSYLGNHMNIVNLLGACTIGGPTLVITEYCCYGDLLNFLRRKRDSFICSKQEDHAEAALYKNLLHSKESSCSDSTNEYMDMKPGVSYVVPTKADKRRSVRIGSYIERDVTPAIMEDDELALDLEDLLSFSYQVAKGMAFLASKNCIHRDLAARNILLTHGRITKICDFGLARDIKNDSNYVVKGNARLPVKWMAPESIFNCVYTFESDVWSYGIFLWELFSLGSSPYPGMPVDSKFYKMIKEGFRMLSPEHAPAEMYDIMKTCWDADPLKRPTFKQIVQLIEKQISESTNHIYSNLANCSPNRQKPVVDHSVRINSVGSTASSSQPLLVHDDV

| Molecule | IC50 (FLT3) [nM] | IC50 (KIT) [nM] | GI50 (MV4-11; Homo sapiens) [nM] | GI50 (MV4-11) [nM] |
| --- | --- | --- | --- | --- |
| C=CC(=O)N1CCC[C@H]1C(=O)NCCn1cnc2cnc(Nc3ncc(-c4ccncc4F)s3)cc21 [Example 8, (2S)-N-[2-[6-[[5-(3-fluoro-4-pyridyl)thiazol-2-yl]amino]imidazo[4,5-c]pyridin-1-yl]ethyl]-1-prop-2-enoyl-pyrrolidine-2-carboxamide] | < 1 | < 1 | < 10 | – |
| CN(C)C/C=C/C(=O)N1CCC[C@H]1C(=O)NCCn1cnc2cnc(Nc3ncc(-c4ccc(F)cc4)s3)cc21 [Example 3, (2S)-1-[(E)-4-(dimethylamino)but-2-enoyl]-N-[2-[6-[[5-(4-fluorophenyl)thiazol-2-yl]amino]imidazo[4,5-c]pyridin-1-yl]ethyl]pyrrolidine-2-carboxamide] | < 1 | 1 to 10 | 10 to 100 | – |
| C/C=C\C(=O)N1CCC[C@H]1C(=O)NCCn1cnc2cnc(Nc3ncc(-c4ccc(F)cc4)s3)cc21 [Example 2, (2S)-1-[(Z)-but-2-enoyl]-N-[2-[6-[[5-(4-fluorophenyl)thiazol-2-yl]amino]imidazo[4,5-c]pyridin-1-yl]ethyl]pyrrolidine-2-carboxamide] | 1 to 10 | 1 to 10 | < 10 | – |
| (3S)-4-[(E)-4-(dimethylamino)but-2-enoyl]-N-[2-[6-[[5-(5-fluoropyrimidin-4-yl)thiazol-2-yl]amino]imidazo[4,5-c]pyridin-1-yl]ethyl]morpholine-3-carboxamide [Example 23] | < 1 | < 1 | – | 10 to 100 |
| C=CC(=O)N1CC[C@H]1C(=O)NCCn1cnc2cnc(Nc3ncc(-c4ncccc4F)s3)cc21 [Example 7, (2S)-N-[2-[6-[[5-(3-fluoro-2-pyridyl)thiazol-2-yl]amino]imidazo [4,5-c]pyridin-1-yl]ethyl]-1-prop-2-enoyl-azetidine-2-carboxamide] | < 1 | < 1 | – | – |
| C=C(F)C(=O)N1CCC[C@H]1C(=O)NCCn1cnc2cnc(Nc3ncc(-c4ccc(F)cc4)s3)cc21 [Example 4] | 1 to 10 | 1 to 10 | < 10 | – |
| C=CC(=O)N1CCC[C@H]1C(=O)NCCn1cnc2cnc(Nc3ncc(-c4ccc(F)cc4)s3)cc21 [Example 5] | < 1 | < 1 | < 10 | – |
| (2S,3S)-1-(2-fluoroprop-2-enoyl)-N-[2-[6-[[5-(3-fluoro-2-pyridyl)thiazol-2-yl]amino]imidazo[4,5-c]pyridin-1-yl]ethyl]-3-hydroxy-pyrrolidine-2-carboxamide [Example 25] | 10 to 100 | 100 to 1000 | – | 10 to 100 |
| C=CC(=O)N1CCOC[C@H]1C(=O)NCCn1cnc2cnc(Nc3ncc(-c4ccc(F)cc4)s3)cc21 [Example 6, (3S)-N-[2-[6-[[5-(4-fluorophenyl)thiazol-2-yl]amino]imidazo[4,5-c]pyridin-1-yl]ethyl]-4-prop-2-enoyl-morpholine-3-carboxamide] | – | – | < 10 | – |

More lines, now with the values ahead:

| IC50 (FLT3) [nM] | IC50 (KIT) [nM] | GI50 (MV4-11; Homo sapiens) [nM] | GI50 (MV4-11) [nM] | Molecule |
| --- | --- | --- | --- | --- |
| < 1 | < 1 | < 10 | – | C=CC(=O)N1CCC[C@H]1C(=O)NCCn1cnc2cnc(Nc3ncc(-c4ncccc4F)s3)cc21 [Example 9, (2S)-N-[2-[6-[[5-(3-fluoro-2-pyridyl)thiazol-2-yl]amino]imidazo[4,5-c]pyridin-1-yl]ethyl]-1-prop-2-enoyl-pyrrolidine-2-carboxamide] |
| < 1 | 1 to 10 | – | – | C=CC(=O)N1C[C@H](O)C[C@H]1C(=O)NCCn1cnc2cnc(Nc3ncc(-c4ncccc4F)s3)cc21 [Example 18, (2S,4R)-N-[2-[6-[[5-(3-fluoro-2-pyridyl)thiazol-2-yl]amino]imidazo[4,5-c]pyridin-1-yl]ethyl]-4-hydroxy-1-prop-2-enoyl-pyrrolidine-2-carboxamide] |
| < 1 | < 1 | < 10 | – | C=CC(=O)N1C[C@@H](O)C[C@H]1C(=O)NCCn1cnc2cnc(Nc3ncc(-c4ccc(F)cc4)s3)cc21 [Example 14, (2S,4S)-N-[2-[6-[[5-(4-fluorophenyl)thiazol-2-yl]amino]imidazo[4,5-c]pyridin-1-yl]ethyl]-4-hydroxy-1-prop-2-enoylpyrrolidine-2-carboxamide] |
| 1 to 10 | 1 to 10 | – | – | C=C(F)C(=O)N1CCOC[C@H]1C(=O)NCCn1cnc2cnc(Nc3ncc(-c4ncccc4F)s3)cc21 [Example 16, (3S)-4-(2-fluoroprop-2-enoyl)-N-[2-[6-[[5-(3-fluoro-2-pyridyl)thiazol-2-yl]amino]imidazo[4,5-c]pyridin-1-yl]ethyl]morpholine-3-carboxamide] |
| 1 to 10 | 10 to 100 | 10 to 100 | – | C=CC(=O)N1C[C@H](O)C[C@H]1C(=O)NCCn1cnc2cnc(Nc3ncc(-c4ncncc4F)s3)cc21 [Example 21, (2S,4R)-N-[2-[6-[[5-(5-fluoropyrimidin-4-yl)thiazol-2-yl]amino]imidazo[4,5-c]pyridin-1-yl]ethyl]-4-hydroxy-1-prop-2-enoyl-pyrrolidine-2-carboxamide] |
| < 1 | < 1 | 10 to 100 | – | C=CC(=O)N1CC[C@H](O)[C@H]1C(=O)NCCn1cnc2cnc(Nc3ncc(-c4ncccc4F)s3)cc21 [Example 24, (2S,3S)-N-[2-[6-[[5-(3-fluoro-2-pyridyl)thiazol-2-yl]amino]imidazo[4,5-c]pyridin-1-yl]ethyl]-3-hydroxy-1-prop-2-enoyl-pyrrolidine-2-carboxamide] |
| < 1 | < 1 | – | – | CN(C)C/C=C/C(=O)N1C[C@H](O)C[C@H]1C(=O)NCCn1cnc2cnc(Nc3ncc(-c4ncccc4F)s3)cc21 [Example 20, (2S,4R)-1-[(E)-4-(dimethylamino)but-2-enoyl]-N-[2-[6-[[5-(3-fluoro-2-pyridyl)thiazol-2-yl]amino]imidazo[4,5-c]pyridin-1-yl]ethyl]-4-hydroxy-pyrrolidine-2-carboxamide] |
| < 1 | 10 to 100 | < 10 | – | C=CC(=O)N1CCOC[C@H]1C(=O)NCCn1cnc2cnc(Nc3ncc(-c4ncccc4F)s3)cc21 [Example 12, (3S)-N-[2-[6-[[5-(3-fluoro-2-pyridyl)thiazol-2-yl]amino]imidazo[4,5-c]pyridin-1-yl]ethyl]-4-prop-2-enoyl-morpholine-3-carboxamide] |
| < 1 | < 1 | – | – | CN(C)C/C=C/C(=O)N1CCOC[C@H]1C(=O)NCCn1cnc2cnc(Nc3ncc(-c4ncccc4F)s3)cc21 [Example 17, (3S)-4-[(E)-4-(dimethylamino)but-2-enoyl]-N-[2-[6-[[5-(3-fluoro-2-pyridyl)thiazol-2-yl]amino]imidazo[4,5-c]pyridin-1-yl]ethyl]morpholine-3-carboxamide] |
| 1 to 10 | 100 to 1000 | 10 to 100 | – | C/C=C\C(=O)N1CCC[C@H]1C(=O)NCCn1cnc2cnc(Nc3ncc(-c4ncccc4F)s3)cc21 [Example 11, (2S)-1-[(Z)-but-2-enoyl]-N-[2-[6-[[5-(3-fluoro-2-pyridyl)thiazol-2-yl]amino]imidazo[4,5-c]pyridin-1-yl]ethyl]pyrrolidine-2-carboxamide] |
| 1 to 10 | 10 to 100 | – | – | C=C(F)C(=O)N1C[C@H](O)C[C@H]1C(=O)NCCn1cnc2cnc(Nc3ncc(-c4ncccc4F)s3)cc21 [Example 19, (2S,4R)-1-(2-fluoroprop-2-enoyl)-N-[2-[6-[[5-(3-fluoro-2-pyridyl)thiazol-2-yl]amino]imidazo[4,5-c]pyridin-1-yl]ethyl]-4-hydroxy-pyrrolidine-2-carboxamide] |
